Measured values reported in patent publication US10258038B2, “Use of heterocyclic compounds for controlling nematodes” (BAYER CROPSCIENCE AKTIENGESELLSCHAFT, priority 2014, dated 2019).
Read-outs that look alike come from different tables or passages of the source.

Experiments:
Pratylenchus penetrans = Pratylenchus penetrans test (soil application); format: in vivo; conditions: corn (Zea mays), after 2 weeks
Experimental: Pratylenchus penetrans—Test (Soil Application)
(§1) Solvent: 4 parts by weight acetone
(§2) Emulsifier: 1 part by weight alkylaryl polyglycol ether
(§3) To produce a suitable preparation of active compound, 1 part by weight of active compound is mixed with solvent and emulsifier at the ratio 4:1 and is diluted with water to the desired concentration.
This compound solution is mixed with 500 ml soil infected with Pratylenchus penetrans (800 nematodes per 100 ml). The stated concentration refers to the amount of compound per unit of volume soil (mg/1=ppm). The treated soil is filled into 500 ml pots and 3 corn seeds (Zea mays) are sown.
(§4) After 2 weeks the number of nematodes in the corn roots is determined by means of maceration. The roots are cleaned with water, cut into about 1 cm pieces and minced with water in a mixer for 10-15 seconds. The pieces are poured over a 0.2 mm-nematode sieve, rinsed with 400 ml water and the flow rate is collected. After 6 hours the supernatant is aspirated and the number of nematodes is determined microscopically with a counting chamber.
(§5) The average number of nematodes per pot is determined and efficieny is calculated by using Abbott's formula:
(§6) C=untreated control plants

Globodera rostochiensis = Globodera rostochiensis test (soil application); format: in vivo; conditions: application rate 2 ppm in soil; potato seedling; after six weeks
Experimental: Globodera rostochiensis—Test (Soil Application)
as §1, §2
as §3, with “concentration. This compound composition is mixed with soil. The stated concentration refers to the amount of compound per unit of volume soil (mg/1=ppm).” for “concentration.”
450 ml of this compound composition is mixed with 50 ml of soil infected with Globodera rostochiensis (20.000 nematodes/100 ml), filled in 500 ml pots and a potato seedling is planted.
After six weeks the average number of cysts in the potato roots per pot are determined and efficieny is calculated by using Abbott's formula:
as §6

Meloidogyne incognita = Meloidogyne incognita in tomato test (MELGIN soil application); format: in vivo; conditions: application rate 2 ppm in soil; tomato seedling (Solanum lycopersicum); after five weeks
Experimental: Meloidogyne incognita in Tomato—Test (MELGIN Soil Application)
as §1, §2
To produce a suitable preparation of active compound, 1 part by weight of active compound is mixed with solvent and emulsifier at the ratio 4:1 and is diluted with water to the desired concentration. The stated concentration refers to the amount of compound per unit of volume soil (mg/1=ppm).
This compound composition is mixed with 500 ml of soil and 4 ml of a nematode suspension (1000 differenciated eggs and larvae of Meloidogyne incognita/ml). The stated concentration refers to the amount of compound per unit of volume soil (mg/1=ppm). The treated soil is filled in 500 ml pots and a tomato seedling (Solanum lycopersicum) is planted.
After five weeks the average number of galls in the tomato roots per pot are determined and efficieny is calculated by using Abbott's formula:
as §6

physchem = format: physicochemical; conditions: reversed-phase C18, acidic range pH 3.4 (formic acid), 55° C.; for chromatographic logP: read-out: log P
Experimental: 1) Description of Method for Determination of the log P Values (Formic Acid Method)
Eluents for determination in the acidic range (pH 3.4):
Eluent A: acetonitrile+1 ml of formic acid/liter. Eluent B: water+0.9 ml of formic acid/liter.
The lambda max values were determined in the maxima of the chromatographic signals using the UV spectra from 200 nm to 400 nm.

Pratylenchus zeae = Pratylenchus zeae test (PRATZE soil application); format: in vivo; conditions: application rate 2 ppm in soil; corn (Zea mays); after 2 weeks
Experimental: Pratylenchus zeae—Test (PRATZE Soil Application)
as §1, §2, §3
This compound solution is mixed with 500 ml soil infected with Pratylenchus zeae (800 nematodes per 100 ml). The stated concentration refers to the amount of compound per unit of volume soil (mg/1=ppm). The treated soil is filled into 500 ml pots and 3 corn seeds (Zea mays) are sown.
as §4, §5, §6

Radopholus similis = Radopholus similis test (soil application); format: in vivo; conditions: application rate 2 ppm in soil; banana seedling; after 2 weeks
Experimental: Radopholus similis—Test (Soil Application)
as §1, §2, §3
This compound solution is mixed with soil. The stated concentration refers to the amount of compound per unit of volume soil (mg/1=ppm). The treated soil is filled into 250 ml pots and a banana seedling is planted. Afterwards 2.5 ml of a nematode suspension (500 Radopholus similis/ml) are applied.
After 2 weeks the number of nematodes in the banana roots is determined by means of maceration. The roots are cut off, cleaned with water and after adding 25-40 ml 0.01% lactic acid—acid fuchsin solution they are boiled in a microwave. On the next day the roots are rinsed over a 0.025 mm-nematode sieve, roughly minced and macerated with 15-20 ml water in an Ultra Turrax. After filling up with water to 45 ml, the number of nematodes in the supernatant is determined microscopically with a counting chamber.
as §5, §6

Row | log P (physchem; HPLC) | SMILES | activity (efficiency by Abbott's formula, number of cysts in potato roots) (Globodera rostochiensis) [%] | also measured
1 | – | N#Cc1nccnc1-n1ccc(NC(=O)c2ccccc2C(F)(F)F)n1 [Compound I-1-574, N-[1-(3-Cyanopyrazin-2-yl)-1H-pyrazol-3-yl]-2-(trifluoromethyl)benzamide] | 80 | activity (efficiency by Abbott's formula, number of nematodes in corn roots) (Pratylenchus penetrans; application rate 4 ppm in soil): 97%
2 | 0.81 | Nc1ccn(-c2ncc(F)cc2F)n1 [Ib-1, 1-(3,5-Difluoropyridin-2-yl)-1H-pyrazole-3-amine] | – | –
3 | 1.13 | Nc1ccn(-c2c(F)cccc2F)n1 [Ia-4, 1-(2,6-Difluorophenyl)-1H-pyrazole-3-amine] | – | –
4 | 1.16 | Nc1cnn(-c2c(F)cccc2F)n1 [Ic-8, 2-(2,6-Difluorophenyl)-2H-1,2,3-triazole-4-amine] | – | –
5 | 1.46 | CC(=O)NC1=NN(c2c(F)cccc2F)CC1 [Ia-2, N-[1-(2,6-Difluorophenyl)-4,5-dihydro-1H-pyrazol-3-yl]acetamide] | – | –
6 | 1.33 | CC(=O)Nc1ccn(-c2c(F)cccc2F)n1 [Ia-3, N-[1-(2,6-Difluorophenyl)-1H-pyrazol-3-yl]acetamide] | – | –
7 | – | O=C(Nc1ccn(-c2c(F)cccc2F)n1)c1ccccc1C(F)(F)F [Compound I-1-75, N-[1-(2,6-difluorophenyl)-1H-pyrazol-3-yl]-2-(trifluoromethyl)benzamide] | 100 | activity (efficiency by Abbott's formula, number of nematodes in corn roots) (Pratylenchus penetrans; application rate 2 ppm in soil): 88%; activity (efficiency by Abbott's formula, number of nematodes in corn roots) (Pratylenchus zeae): 89%; activity (efficiency by Abbott's formula, number of nematodes in banana roots) (Radopholus similis): 90%; activity (efficiency by Abbott's formula, number of galls in tomato roots) (Meloidogyne incognita): 100%; chromatographic logP (physchem; HPLC): 2.68
8 | – | CCN(C(=O)c1ccccc1C(F)(F)F)c1ccn(-c2ncc(F)cc2F)n1 [Compound I-1-468, N-[1-(3,5-difluoropyridin-2-yl)-1H-pyrazol-3-yl]-N-ethyl-2-(trifluoromethyl)benzamide] | 100 | chromatographic logP (physchem; reversed-phase C18 HPLC column): 3.23

Row | SMILES | log P (physchem; HPLC) | activity (efficiency by Abbott's formula, number of cysts in potato roots) (Globodera rostochiensis) [%] | also measured
9 | O=C(Nc1cnn(-c2c(F)cccc2F)n1)c1ccccc1C(F)(F)F [Compound I-2-35, N-[2-(2,6-Difluorophenyl)-2H-1,2,3-triazol-4-yl]-2-(trifluoromethyl)benzamide] | 2.80 | 100 | activity (efficiency by Abbott's formula, number of nematodes in corn roots) (Pratylenchus penetrans; application rate 2 ppm in soil): 90%; activity (efficiency by Abbott's formula, number of galls in tomato roots) (Meloidogyne incognita): 100%
